For 113 compounds, melting point results are on record in a melting point compilation (Tetko et al.).

For the compound `CC1CCCC(C)N1C(=O)COC(=O)c1ccccc1` (stereo not drawn), the melting point is 118 °C. The compound `O=Cc1ccc(-c2ncccn2)cc1` came in with a melting point of 108 to 109 °C. Next, `CC(=O)NCCSC(C)=O`: 32.5 °C; `CC(C)(C)C(O)(CCc1ccc(Cl)cc1)Cn1cncn1` (stereo not drawn): 105 °C. Turning to `Clc1c(Cl)c(Cl)c2c(c1Cl)Oc1ccccc1O2`, the melting point was found to be 188 °C.

For the compound `O=C(O)C(Br)C(Br)c1cccc(C(Br)C(Br)C(=O)O)c1` (stereo not drawn), the melting point amounted to 225 °C. To `O=C1CC2C(CC(OC(=O)c3ccccc3)C2COC(c2ccccc2)(c2ccccc2)c2ccccc2)O1` (single isomer, unassigned; (-)) belongs 183 to 185 °C. Compound `Cn1c(N)cc(=O)[nH]c1=O` displayed a melting point of 300 °C. Compound `O=C=Nc1ccc(OC2CCOCC2)nc1` came in with a melting point of 68.5 to 70.5 °C.

Compound `C1=CCCCC=C1` displayed a melting point of -110 °C. On to `O=S(O)c1ccc(Cl)cc1`, for which the melting point turned out to be 99 °C. In turn, `Nc1ccc(-c2ccc(N)c(N)c2)cc1N` returned a melting point of 176 °C. Next, `CC1(C)OC(C)(C(O)C2CCCCC2)CCC1C(=O)O` (stereo not drawn): 181 °C; `Cn1nc(-c2ccco2)cc1CO`: 83 to 85 °C. Turning to `NNC(=O)c1csc(-c2ccccc2)n1`, the melting point was 137 to 138 °C.

Turning to `C=CCSc1nc(=O)[nH]c2c1CCCC2`, the melting point is 207 to 209 °C. To `O=C(COc1ccc(Cl)cc1)Nc1nc2ccccc2s1` belongs 139 °C; to `NNC(=O)c1ccc(Cl)nc1`, 250 °C. Next, `N#Cc1ccc(CS(=O)(=O)Cl)cc1`: 99.5 to 102 °C; `Cc1ccc(C2CC(c3ccc4ccccc4c3)=NN2c2ccccc2)cc1` (stereo not drawn): 168 °C; `CC1(C)OC2CC3C4CC(F)C5=CC(=O)C=CC5(C)C4C(O)CC3(C)C2(C(=O)CO)O1` (stereo not drawn): 245 °C. As for `O=[N+]([O-])c1cccnc1`, the melting point stood at 40 °C. Next, `COC(=O)CCCCCCC(=O)O`: 17 to 19 °C; `Nc1snnc1-c1ccccc1`: 144 to 147 °C; `Cc1cccc(C(=O)O)n1`: 130 °C. With `O=C(O)C(Br)Br`, the melting point was 49 °C. Consider `CC(=O)Nc1ccccc1CCc1ccccc1`, for which the melting point is 117 °C. Regarding `NC(=S)CS(=O)(=O)c1ccc(Cl)cc1`, the melting point was 188 to 192 °C. Take `O=c1cc(-c2ccccc2)oc2ccc3ccccc3c12`: the melting point is 164 °C. To `COc1ccc(Oc2ccc(C(F)(F)F)cc2N)cc1` belongs 73 to 75 °C. Compound `Fc1cc(Br)ccc1-c1ccccc1` came in with a melting point of 40 °C.

`NC(=S)Nc1ccccc1C(F)(F)F` had a melting point of 158 to 159 °C. Compound `CCSc1nnc(NC(=O)C(C(F)(F)F)C(F)(F)F)s1` returned a melting point of 159 °C.

For the compound `O=C=Nc1ccc(-c2cccs2)cc1`, the melting point fell in the range of 65 to 66 °C. `COc1cc(N)c2ncccc2c1` returned a melting point of 52 °C. Regarding `COC(=O)c1cc(I)cc(C(=O)OC)c1`, the melting point was in the range of 105 to 107 °C. For `CC(=O)Oc1cccc2cccnc12`, the melting point came out at 55 °C. As to `O=C(c1ccccc1)c1cccc(O)c1`, the melting point lay within 117 to 119 °C. `Cc1cccc(-n2cc[nH]c2=S)c1` had a melting point of 153 to 154 °C. `CCCCCCCCCCCCCCCCCC#N` had a melting point of 41 °C.

In the case of `CCOC(=O)c1[nH]nc(C)c1C(=O)OCC`, the melting point lay in the range of 98 to 99 °C. To `CC(C)(C(=O)O)C(CC(=O)O)c1ccccc1` (stereo not drawn) belongs 171 °C; to `Nc1c(Br)cc(Br)cc1C=O`, 136 to 139 °C. `Cc1nc2ccccc2c(C(=O)O)c1C(=O)O` yielded a melting point of 225 to 233 °C. Next, `Cc1nn(C)c(N2CCOCC2)c1N`: 156 to 157 °C; `Nc1nnc(-c2ccc([N+](=O)[O-])o2)s1`: 280 °C; `CC(=O)Oc1ccccc1C(=O)Cl`: 49 °C. `OCc1sc(-c2ccccc2)nc1-c1ccccc1` showed a melting point of 125 °C. `O=C(Cl)COc1ccc(Cl)cc1` showed a melting point of 19 °C. Compound `CN(C)C(=S)SC(=S)N(C)C` returned a melting point of 106 to 110 °C. For the compound `C#CCOCc1cc(COCC#C)c(COCC#C)cc1COCC#C`, the melting point was 66 °C. With `CC1(C)Cc2cccc(CO)c2O1`, the melting point is 59 to 60 °C. For `O=C1NC(=O)c2c(Cl)c(Cl)c(Cl)c(Cl)c21`, the melting point came to 300 °C. For `COc1cc(CNC(=O)c2[nH]c3ccccc3c2CCO)cc(OC)c1`, the melting point is 185 to 187 °C. The compound `CCCCCCCCCCCCCCC(C)CC` (stereo not drawn) came in with a melting point of -6 °C. The compound `C(#Cc1ccc(/N=C/c2ccccc2)cc1)c1ccc(/N=C/c2ccccc2)cc1` gave a melting point of 207 °C. For `CCOc1ccc(Br)cc1C=O`, the melting point came out at 69 °C.

Regarding `COc1ccc(OC2OC(CO)C(O)C(O)C2O)cc1` (stereo not drawn), the melting point is 159 °C. Next, `N#Cc1cc(Br)c(O)c(Br)c1`: 190 °C. To `Cc1cc(C)n2nc(N)c(Cc3ccc(F)cc3)c2n1` belongs 208 to 210 °C; to `O=C(O)c1cc2nccnc2s1`, 220 °C.

`O=c1nc2ccccc2nc(C(F)(F)F)c1NNc1ccc2ccccc2c1` came in with a melting point of 151 °C. Next, `N#CCC(=O)c1cccc(Cl)c1`: 81 °C; `O=C(Cl)c1ccc2c(c1)C(=O)OC2=O`: 68 °C.

Consider `CN(C)c1ccc(CO)cc1`, for which the melting point came out at 69 °C. Consider `OCc1cccc(CO)n1`, for which the melting point is 112 to 115 °C. To `CC(=O)C(C)=NO` belongs 76.8 °C; to `CS(=O)(=O)NC(=O)c1cc(Oc2ccc(C(F)(F)F)cc2Cl)ccc1[N+](=O)[O-]`, 220 °C; to `Cc1nc(-c2cccc(N)c2)no1`, 95 to 96 °C.

`O=C(Nc1ccccc1Br)C(C(F)(F)F)C(F)(F)F` showed a melting point of 183 to 185 °C. To `Cc1ccc(NC(=O)N(C)C)cc1Cl` belongs 148 °C; to `CCCCSP(SCCCC)SCCCC`, 100 °C; to `O=Cc1cc(I)c(O)c(I)c1`, 201 °C. For the compound `COc1c(Cl)cc([N+](=O)[O-])c(OC)c1C(=O)O`, the melting point turned out to be 131 °C. To `CN(C)c1ccc(C=C2SC(=S)NC2=O)cc1` belongs 285 to 288 °C; to `FC(F)(F)C(F)(C(F)(F)F)C(F)(C(F)(F)F)C(F)(F)F`, -16.7 °C; to `Cc1c([N+](=O)[O-])cc2c(c1[N+](=O)[O-])C(C)(C)CC2(C)C`, 132 °C. As to `Nc1cc[nH]n1`, the melting point turned out to be 37 °C. Compound `CCOC(=O)c1nn(-c2ccc(C)cc2)c(C)c1C(=O)C1=NOC2C(=O)N(c3ccc(Br)cc3)C(=O)C12` (stereo not drawn) showed a melting point of 238 °C. The compound `Clc1ncccc1I` displayed a melting point of 95 °C. `COCN1CCOCCOCCN(COC)CCOCCOCC1` came in with a melting point of 33 to 38 °C.

In the case of `CCOP(=O)(NC(C)C)Oc1ccc(SC)c(C)c1` (stereo not drawn), the melting point came to 49 °C. In turn, `O=C(O)c1ccc2c(c1)C(=O)c1ccccc1-2` registered a melting point of 341 °C. As to `O=C1CCCc2ccc(Br)cc21`, the melting point fell in the range of 78 to 79 °C. `CC(C)(C)OC(=O)N1CCN(c2ccc(C=O)cc2)CC1` registered a melting point of 118 to 119 °C. Consider `BrC(c1ccccc1)c1ccccc1`, for which the melting point was determined as 45 °C. For the compound `COc1cc(F)c(F)cc1OC`, the melting point stood at 40 °C. Regarding `NC(=S)c1ccccc1`, the melting point is 116 °C. Compound `O=[N+]([O-])c1ccc(-c2nnc3n2NC(c2ccc(Cl)cc2)S3)cc1` (stereo not drawn) displayed a melting point of 220 °C. Regarding `CCN(CC)C(=O)Cl`, the melting point is -32 °C. The compound `Clc1ccc(C2Nn3c(nnc3-c3ccccc3)S2)cc1` (stereo not drawn) displayed a melting point of 196 to 198 °C. Take `Cc1cc(C)c2c(=O)n3c(cc2c1)CCCC3`: the melting point worked out at 62 °C. To `CCCCOC(=O)COc1cc(Cl)c(Cl)cc1Cl` belongs 28.5 °C; to `CC1CCNCC1`, 5 °C; to `Oc1c(O)c(Br)c(Br)c(Br)c1Br`, 191 °C. Take `Nc1ncnc2c1ccn2C1OC(CO)C(O)C1O` (stereo not drawn): the melting point was 247 °C. In turn, `CCCCCCC(=O)OCCCCC` displayed a melting point of -50 °C. Compound `CCCCCCCCCCCCCCCCCCCCCCCCCCCCCC[Si](Cl)(Cl)Cl` gave a melting point of 60 to 80 °C. To `CC(=O)N1CCc2cccc(N)c21` belongs 157 to 160 °C. For the compound `Cc1nc(C(F)(F)F)ccc1C(=O)O`, the melting point was 137 to 142 °C.

`CSc1nn2c(=O)c(C)nnc2s1` yielded a melting point of 196 °C. Compound `CCCCCCCCCCCC(O)CC` (stereo not drawn) showed a melting point of 31.5 °C. With `CC(=O)Nc1ccc(C=NNC(N)=S)cc1`, the melting point was in the range of 225 to 230 °C. `Cc1c(C(=O)O)cc(-c2ccccc2)n1CCCN1CCOCC1` yielded a melting point of 172 to 177 °C. Compound `COc1ccc(C2=CCC3(C)C(CCC4C3CCC3(C)C(OC(C)=O)CCC43)C2)cc1` (stereo not drawn) showed a melting point of 177 to 180 °C. Consider `COc1ccc(C(O)(c2ccc(OC)cc2)c2ccc(OC)cc2)cc1`, for which the melting point is 79 °C.

As for `O=C(Nc1cccc2ccccc12)Nc1cccc2ccccc12`, the melting point is 296 °C. `O=C(CCCN1CCN(c2ccccn2)CC1)c1ccc(F)cc1` registered a melting point of 92 °C. To `O=C(Cl)c1ccc(-c2cccs2)cc1` belongs 113 to 115 °C; to `CCOC(=O)CNc1nc(Cl)nc(NC(C)C)n1`, 110 °C. To `COc1cc2nc[nH]c(=O)c2cc1OC` belongs 250 °C.

On to `Cc1oc(S(=O)(=O)N2CCOCC2)cc1C(=O)O`, for which the melting point was 184 to 186 °C. `COc1cc2c(cc1O)CCNC2` yielded a melting point of 222 °C.
